# Results taken from patent publication US9550782B2, “Compounds and methods for treating diabetes” (Medivation Technologies, Inc., priority 2011, dated 2017).
# Legend:
# [1] = target: T1, human recombinant adrenergic α2B receptor (Homo sapiens, UniProt P18089); experiment: Radioligand binding, adrenergic α2B ([3H]Rauwolscine); conditions: 0.03 µM; for Percentage inhibition of ligand binding, Adrenergic α2B (0.03 μM): compound at 0.03 μM, repeat datapoints each shown; for Percentage inhibition of ligand binding, Adrenergic α2B: 0.03 μM compound
# T1 construct: expressed in transfected cells; host or cells: CHO-K1
# T1 sequence (P18089 1-450): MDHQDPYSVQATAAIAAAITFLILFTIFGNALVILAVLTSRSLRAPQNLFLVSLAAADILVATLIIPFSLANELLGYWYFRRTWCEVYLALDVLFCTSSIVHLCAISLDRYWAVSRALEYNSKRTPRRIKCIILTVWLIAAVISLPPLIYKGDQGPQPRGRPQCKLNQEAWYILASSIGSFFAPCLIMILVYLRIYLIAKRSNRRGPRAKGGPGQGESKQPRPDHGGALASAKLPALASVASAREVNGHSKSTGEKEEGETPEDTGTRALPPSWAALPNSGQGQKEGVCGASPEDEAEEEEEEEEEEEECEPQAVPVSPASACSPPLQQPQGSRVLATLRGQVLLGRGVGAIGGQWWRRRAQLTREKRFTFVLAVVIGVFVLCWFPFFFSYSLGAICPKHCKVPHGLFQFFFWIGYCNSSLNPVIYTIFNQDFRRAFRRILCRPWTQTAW
# How it was run: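 Membranes from CHO-K1 cells expressing human recombinant α2B, in 50 mM Tris-HCl pH 7.4, 12.5 mM MgCl2, 1 mM EDTA, 0.2% BSA, incubated with compound and 2.5 nM [3H]Rauwolscine, 60 min, 25 °C.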
# [2] = target: T2, rat adrenergic α1B receptor (Rattus norvegicus, UniProt P15823); experiment: Radioligand binding, adrenergic α1B ([3H]Prazosin); design: species or system Wistar Rat; conditions: for Percentage inhibition of ligand binding, Adrenergic α1B (0.1 μM): compound at 0.1 μM, repeat datapoints each shown; for Percentage inhibition of ligand binding, Adrenergic α1B: 0.1 μM compound
# T2 construct: rat adrenergic α1B receptor obtained from Wistar Rat liver; from tissue; host or cells: Wistar rat liver
# T2 sequence (P15823 1-515): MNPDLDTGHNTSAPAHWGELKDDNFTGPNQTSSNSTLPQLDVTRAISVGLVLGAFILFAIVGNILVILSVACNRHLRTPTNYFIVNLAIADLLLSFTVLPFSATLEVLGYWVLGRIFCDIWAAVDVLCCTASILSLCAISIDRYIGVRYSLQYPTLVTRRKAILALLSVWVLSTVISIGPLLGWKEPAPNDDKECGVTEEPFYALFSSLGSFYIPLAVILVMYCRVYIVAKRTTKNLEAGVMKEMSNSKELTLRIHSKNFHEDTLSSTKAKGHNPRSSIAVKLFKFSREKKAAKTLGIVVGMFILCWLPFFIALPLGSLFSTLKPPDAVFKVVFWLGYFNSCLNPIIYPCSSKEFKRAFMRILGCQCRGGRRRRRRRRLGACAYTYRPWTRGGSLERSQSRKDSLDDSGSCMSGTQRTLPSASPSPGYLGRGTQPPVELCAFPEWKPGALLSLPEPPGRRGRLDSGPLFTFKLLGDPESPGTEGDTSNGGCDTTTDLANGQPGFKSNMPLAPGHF
# How it was run: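 Specific binding, taken as total minus that remaining with 10 μM phentolamine, is measured after filtration and counting. Rat liver receptor preparation and 0.25 nM [3H]prazosin are incubated with compound in 50 mM Tris-HCl (pH 7.4, 0.5 mM EDTA) at 25° C for 60 min. Activity is reported as percent inhibition.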
# [3] = target: T3, human recombinant adrenergic α2A receptor (Homo sapiens, UniProt P08913); experiment: Radioligand binding, adrenergic α2A ([3H]MK-912); conditions: [3H]MK-912; for Percentage inhibition of ligand binding, Adrenergic α2A (0.1 μM): compound at 0.1 μM, repeat datapoints each shown; for Percentage inhibition of ligand binding, Adrenergic α2A: 0.1 μM compound
# T3 construct: expressed in transfected cells; host or cells: insect Sf9 cells
# T3 sequence (P08913 1-465): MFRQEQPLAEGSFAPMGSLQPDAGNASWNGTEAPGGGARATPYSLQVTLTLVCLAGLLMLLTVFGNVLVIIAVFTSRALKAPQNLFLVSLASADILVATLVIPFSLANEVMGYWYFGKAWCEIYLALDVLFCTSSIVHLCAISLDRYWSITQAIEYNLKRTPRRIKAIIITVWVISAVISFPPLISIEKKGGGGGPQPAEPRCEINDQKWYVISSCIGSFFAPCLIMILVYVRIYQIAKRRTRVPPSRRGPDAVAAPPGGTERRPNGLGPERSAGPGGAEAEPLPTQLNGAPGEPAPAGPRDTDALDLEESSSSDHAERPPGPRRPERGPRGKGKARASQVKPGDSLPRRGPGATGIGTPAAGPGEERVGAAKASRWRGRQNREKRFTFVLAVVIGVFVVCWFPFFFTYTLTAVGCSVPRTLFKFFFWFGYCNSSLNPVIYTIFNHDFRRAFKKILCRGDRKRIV
# How it was run: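 Receptor expressed in Sf9 cells, in 50 mM Tris-HCl pH 7.4, 12.5 mM MgCl2, 2 mM EDTA; compounds incubated with 1 nM [3H]MK-912 for 60 min at 25 °C.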
Structure (SMILES),"Percentage inhibition of ligand binding, Adrenergic α2B (0.03 μM) [1]","Percentage inhibition of ligand binding, Adrenergic α1B (0.1 μM) ([2]; 0.1 µM)","Percentage inhibition of ligand binding, Adrenergic α2A (0.1 μM) ([3]; 0.1 µM)","Percentage inhibition of ligand binding, Adrenergic α2B [1]","Percentage inhibition of ligand binding, Adrenergic α1B ([2]; 0.1 µM)","Percentage inhibition of ligand binding, Adrenergic α2A ([3]; 0.1 µM)","Percentage inhibition of ligand binding, Adrenergic α1B [2]","Percentage inhibition of ligand binding, Adrenergic α2A [3]"
"Cc1ccc2c(c1)c1c(n2CC(O)c2ccncc2)CCN2CCCCC12 (single isomer, unassigned) [47a]",40%,58%,10%,,,,,
"Cc1ccc2c(c1)c1c(n2CC(O)c2ccncc2)CCN2CCCCC12 (single isomer, unassigned) [47b]",119%,70%,41%,,,,,
"Cc1ccc2c(c1)c1c(n2CC(O)c2ccncc2)CCN2CCCCC12 (single isomer, unassigned) [47c]",53%,6%,4%,,,,,
"Cc1ccc2c(c1)c1c(n2CC(O)c2ccncc2)CCN2CCCCC12 (single isomer, unassigned) [47d]",30%,5%,−3%,,,,,
"CN1CCc2c(c3cccc(Br)c3n2CC(O)c2ccncc2)C1 (single isomer, unassigned) [48a]",58%,16%,12%,,,,,
"CN1CCc2c(c3cccc(Br)c3n2CC(O)c2ccncc2)C1 (single isomer, unassigned) [48b]",86%,14%,17%,,,,,
"Cc1ccc2c(c1)c1c(n2CC(C)(O)c2ccc[n+]([O-])c2)CCN(C)C1 (single isomer, unassigned) [56a]",20%,1%,11%,,,,,
"Cc1ccc2c(c1)c1c(n2CC(C)(O)c2ccc[n+]([O-])c2)CCN(C)C1 (single isomer, unassigned) [56b]",28%,6%,17%,,,,,
"CN1CCc2c(c3cc(C(F)(F)F)ccc3n2CC(O)c2cccnc2)C1 (single isomer, unassigned) [59a]",15%,11%,18%,,,,,
"CN1CCc2c(c3cc(C(F)(F)F)ccc3n2CC(O)c2cccnc2)C1 (single isomer, unassigned) [59b]",31%,7%,12%,,,,,
"Cc1ccc2c(c1)c1c(n2CC(O)c2cc[n+]([O-])cc2)CCN(C)C1 (single isomer, unassigned) [69a]",10%,4%,11%,,,,,
"Cc1ccc2c(c1)c1c(n2CC(O)c2cc[n+]([O-])cc2)CCN(C)C1 (single isomer, unassigned) [69b]",19%,8%,7%,,,,,
"Cc1ccc2c(c1)c1c(n2CC(O)c2ccncc2)CC2CCCN2C1 (single isomer, unassigned) [76a]",92%,78%,21%,,,,,
"Cc1ccc2c(c1)c1c(n2CC(O)c2ccncc2)CC2CCCN2C1 (single isomer, unassigned) [76b]",34%,71%,18%,,,,,
"Cc1ccc2c(c1)c1c(n2CC(O)c2ccncc2)CC2CCCN2C1 (single isomer, unassigned) [76c]",35%,33%,5%,,,,,
"Cc1ccc2c(c1)c1c(n2CC(O)c2ccncc2)CC2CCCN2C1 (single isomer, unassigned) [76d]",91%,51%,40%,,,,,
"Cc1ccc2c(c1)c1c(n2CC(O)c2ccncc2Cl)CCN(C)C1 (single isomer, unassigned) [135a]",,,,42%,60%,4%,,
"Cc1ccc2c(c1)c1c(n2CC(O)c2ccncc2Cl)CCN(C)C1 (single isomer, unassigned) [135b]",,,,68%,30%,22%,,
"Cc1cnc2c(c1)c1c(n2CC(O)c2ccc(F)cc2)CCN(C)C1 (single isomer, unassigned) [136a]",,,,34%,,16%,54%,
"Cc1ccc(CCn2c3c(c4cc(Cl)cnc42)C2CCCN2CC3)cn1 (single isomer, unassigned) [137b]",,,,30%,23%,,,6%
"Cc1cnc2c(c1)c1c(n2CC(C)(O)c2ccc(F)cc2)CCN(C)C1 (single isomer, unassigned) [138a]",,,,63%,61%,−8%,,
"Cc1cnc2c(c1)c1c(n2CC(C)(O)c2ccc(F)cc2)CCN(C)C1 (single isomer, unassigned) [138b]",,,,25%,22%,4%,,
